# Measured values from PMC9775652, “Concomitant Administration of Red Ginseng Extract with Lactic Acid Bacteria Increases the Plasma Concentration of Deglycosylated Ginsenosides in Healthy Human Subjects” (Biomolecules, 2022).
# Legend:
# [1] = Pharmacokinetic study of ginsenosides in healthy humans after repeated oral RGE with or without LAB; assay type: in vivo, human; conditions: male, human, in vivo, po
# Description: A single-sequence study consisting of two periods was conducted on five healthy male subjects (body weight > 50 kg and age > 19 years) for 29 days. During the first period of the study (RGE treatment group), three pouches of RGE (30 mL, 104.1 mg of total ginsenosides) were administered to 5 subjects once daily for 14 days. On the 14th day, the subjects were admitted to the Clinical Trial Center of KNUH at 7 AM and underwent the last RGE administration at approximately 8–9 AM. Blood samples (approximately 3 mL) were collected at 0, 4, 6, 8, 10, 12, 13, 14, and 24 h after the last dose. A saline-locked angiocatheter was placed on the forearm of each subject’s hand. After discarding 1 mL of blood derived from the catheter, 3 mL of blood was drawn into a vacutainer tube containing heparin and centrifuged at 3000× g for 10 min. The supernatant plasma samples were stored at −80 °C until ginsenoside analysis.
# In the second half of the study (RGE + LAB treatment group), 3 pouches of RGE (30 mL, 104.1 mg of total ginsenosides) and 1 pouch of LAB (1 billion CFU/2 g) were co-administered once daily for 14 days. On the […], the subjects were admitted to the Clinical Trial Center of KNUH at 7 AM and received the last red ginseng dose at approximately 8–9 AM. Blood samples (approximately 3 mL) were withdrawn at 0, 4, 6, 8, 10, 12, 13, 14, and 24 h intervals after the last dose and centrifuged at 3000× g for 10 min; the supernatant plasma samples were stored at −80 °C.
# Briefly, to analyze GRb1, GRb2, GRc, GRd, GRe, GRf, GRg1, GRg3, GF1, and GF2, 400 μL of an internal standard (IS; 0.05 ng/mL berberine in methanol) was added to 100 μL of plasma. The mixture was vortexed for 15 min and centrifuged at 16,000× g for 5 min. After centrifugation, 400 μL of the supernatant was evaporated using a speed-dry vacuum concentrator (Christ, Osterode am Harz, Germany). The residue was reconstituted using 200 μL of 70% methanol supplemented with 0.1% formic acid, and a 10 μL aliquot was injected into the LC-MS/MS system. Chromatographic separation was performed using a Polar RP column (150 × 2.0 mm, 4.0 μm particle size; Phenomenex, Torrance, CA, USA) using a mobile phase consisting of 0.1% formic acid in water (phase A) and 0.1% formic acid in methanol (phase B). The following elution gradient was used: 69% of phase B for 0–2.0 min, 69–85% of phase B for 2.0–4.0 min, and 85–69% of phase B for 6.0–6.5 min. The flow rate was 0.27 mL/min.
# The mixture was vortexed for 10 min and centrifuged at 16,000× g for 5 min. After centrifugation, the samples were frozen at −80 °C for 4 h. The upper layer was transferred to a clean tube and evaporated. The residue was reconstituted using 200 μL of 80% methanol supplemented with 0.1% formic acid, and a 10 μL aliquot was injected into the LC-MS/MS system. Chromatographic separation was performed using a Luna C18 column (150 × 2.0 mm, 3.0 μm particle size; Phenomenex, Torrance, CA, USA) and using a mobile phase consisting of water containing 0.1% formic acid: methanol containing 0.1% formic acid = 8:92 (v/v) at a flow rate of 0.15 mL/min.
# The quantification of ginsenosides was carried out using multiple reaction monitoring in positive ionization mode, as previously described.
# Finally, pharmacokinetic parameters were calculated using non-compartmental methods (WinNonlin version 5.1; Pharsight Co., Certara, NJ, USA). Statistical analysis was performed by Student’s t-test to compare the two groups using IBM SPSS Statistics for Windows (version 25.0; IBM Corp., Armonk, NY, USA). Differences were considered significant at p < 0.05.
# [2] = set-up: method as in PMID 34575573; conditions: mice, LAB supplementation (Lacto-fit) for two weeks; cited from earlier work
# [3] = Transport (permeability) of ginsenosides in CaCo-2 cell monolayers; assay type: in vitro ADME; conditions: human, Caco-2, Efflux ratio (ER)
# Description: CaCo-2 cells (passage no 41–43) were seeded onto collagen-coated permeable support (1.0 μm pore size) in a 24-well plate at a density of 2.5 × 10^4 cells/insert and cultured for 21 days in Dulbecco’s modified eagle’s medium supplemented with 10% fetal bovine serum, 1% non-essential amino acids, and 1% penicillin-streptomycin at 37 °C in a humidified atmosphere (5% CO2/95% air). After confirming that the transepithelial electrical resistance (TEER) of the CaCo-2 cell monolayer was over 400 Ω·cm^2, Apical to basal (A to B) transport and B to A transport of ginsenosides using 50 µM, GRb1 was investigated as previously described. The same permeability study was performed using 50 µM GRb2, GRc, GRd, GRg3, GRh2, GF2, CK, PPD, GRe, GRf, GRg1, GRh1, GF1, or PPT.
# (§1) For the transport study of ginsenosides in CaCo-2 cells and LLC-PK1-P-gp cells, the ginsenoside transport rate in the A to B or B to A directions was calculated from the slope of the regression line from the mean transported amounts versus time plot. The apparent permeability (Papp) was calculated using Equation (1). (1) Papp (×10^−6 cm/s)=transport rate (nmol/min)/concentration(μM)×area(cm^2)×60s
# (§2) The efflux ratio was calculated by dividing the Papp of ginsenosides from the B to A direction by that from the A to B direction.
# P-gp = molecular target: T1, P-gp (Homo sapiens, UniProt P08183); assay: Transport of ginsenosides in P-gp-overexpressing LLC-PK1-P-gp cells; assay type: in vitro ADME; conditions: pig
# T1 construct: host or cells: LLC-PK1-P-gp cells (passage no. 25–28)
# Description: LLC-PK1-P-gp cells (passage no. 25–28) were seeded onto collagen-coated permeable support (1.0 μm pore size) in 24-well plates at a density of 2.5 × 10^4 cells/insert and grown for 5 days with TEER values of over 500 Ω·cm^2 [24]. The A to B transport and B to A transport of GRg3, GRh2, CK, PPD, GRg1, GRh1, and PPT (20 μM each) were measured as previously described. The concentration dependency in the B to A transport of GRh2, CK, PPD, and PPT was measured in the range of 6.25–200 μM for GRh2, CK, PPD, and PPT.
# as §1, §2
# To measure the kinetic parameters of the concentration dependence on the P-gp-mediated ginsenoside efflux, the ginsenoside transport rate in the B to A direction (ν) versus the ginsenoside concentration (S) plot was fitted in the Michaelis–Menten Equation (2) using Sigma Plot (version 12.0, Systat Software Inc. Chicago, IL, USA). (2) ν=Vmax×S/Km+S
# LAB = assay: In vitro RGE fermentation with LAB; assay type: in vitro ADME; conditions: RGE incubated with LAB (1 billion CFU) for 7 days at 37 °C; result in words
# Description: To identify the effects of LAB on ginsenoside metabolism, an in vitro fermentation study was performed according to the method of Jeon et al., with slight modifications. Briefly, RGE (10 mL, 1 pouch) and 2 g LAB (containing 1 billion CFU) were suspended in 10 mL autoclaved MRS broth (550 mg broth powder dissolved in 10 mL water). For the 15 ginsenosides, individual ginsenosides (10 μM each) and 2 g of LAB were suspended in 20 mL of autoclaved MRS broth (550 mg broth powder dissolved in 20 mL water). The mixture was incubated for 7 days in a shaking incubator at 37 °C and 300 rpm, and a 0.1 mL aliquot of the incubation mixture was collected on days 0, 3, 5, and 7. The incubation medium was diluted 100-fold with distilled water and stored at −80 °C to analyze ginsenosides using the LC-MS/MS system.
# To measure the metabolic activity of ginsenosides, the formation rate of ginsenosides (pmol/day) was calculated by dividing the slope of the regression line by the amount of deglycosylated ginsenosides versus the incubation time plot by the initial concentration of individual ginsenosides.
# [4] = rat, in vivo, po; cited from earlier work
# T1 sequence (P08183 whole entry): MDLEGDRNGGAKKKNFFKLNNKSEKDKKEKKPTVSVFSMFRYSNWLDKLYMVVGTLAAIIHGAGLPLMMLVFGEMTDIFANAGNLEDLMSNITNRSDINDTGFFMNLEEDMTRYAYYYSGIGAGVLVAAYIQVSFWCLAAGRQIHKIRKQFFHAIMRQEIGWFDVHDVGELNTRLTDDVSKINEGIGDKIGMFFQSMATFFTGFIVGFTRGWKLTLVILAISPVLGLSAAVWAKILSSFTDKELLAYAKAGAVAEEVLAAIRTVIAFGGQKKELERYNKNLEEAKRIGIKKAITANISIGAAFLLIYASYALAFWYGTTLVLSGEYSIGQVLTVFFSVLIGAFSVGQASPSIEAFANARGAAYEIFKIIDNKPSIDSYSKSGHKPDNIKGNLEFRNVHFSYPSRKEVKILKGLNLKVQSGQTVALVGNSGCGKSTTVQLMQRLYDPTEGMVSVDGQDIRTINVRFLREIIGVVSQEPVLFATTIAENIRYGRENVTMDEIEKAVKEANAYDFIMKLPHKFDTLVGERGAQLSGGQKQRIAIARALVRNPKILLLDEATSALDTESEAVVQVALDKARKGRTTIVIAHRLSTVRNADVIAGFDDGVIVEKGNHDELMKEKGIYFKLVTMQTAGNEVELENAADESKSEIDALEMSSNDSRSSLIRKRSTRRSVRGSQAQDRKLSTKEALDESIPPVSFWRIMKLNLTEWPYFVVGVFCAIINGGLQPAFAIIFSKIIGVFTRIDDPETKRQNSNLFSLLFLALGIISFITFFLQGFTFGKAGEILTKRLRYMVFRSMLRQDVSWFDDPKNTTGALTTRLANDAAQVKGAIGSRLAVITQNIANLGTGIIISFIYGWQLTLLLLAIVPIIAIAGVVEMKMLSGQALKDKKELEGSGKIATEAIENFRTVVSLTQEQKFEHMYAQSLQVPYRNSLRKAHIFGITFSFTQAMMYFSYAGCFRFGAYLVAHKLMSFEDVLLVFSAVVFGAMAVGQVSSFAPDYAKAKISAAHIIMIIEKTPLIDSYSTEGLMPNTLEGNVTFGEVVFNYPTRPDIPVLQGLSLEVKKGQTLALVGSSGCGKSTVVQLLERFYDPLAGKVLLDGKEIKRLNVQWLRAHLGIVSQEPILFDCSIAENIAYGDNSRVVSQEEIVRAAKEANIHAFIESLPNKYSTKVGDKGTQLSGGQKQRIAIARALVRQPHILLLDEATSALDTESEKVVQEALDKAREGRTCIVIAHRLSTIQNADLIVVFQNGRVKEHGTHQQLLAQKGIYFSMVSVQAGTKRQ
structure (smiles),measurement,setting,value
"CC(C)=CCCC(C)(O)C1CCC2(C)C1C(O)CC1C3(C)CCC(O)C(C)(C)C3C(O)CC12C (stereo not drawn) [PPT, 20(s)-protopanaxatriol]",AUC,[1]; 104.1 mg,59.9 ± 49.2 ng·h/mL
same,Cmax,[1]; Cmax,9.5 ± 4.8 ng/mL
same,MRT,[1]; MRT,19.4 ± 10.5 h
same,Tmax,[1]; Tmax,17.4 ± 17.4 h
same,AUC fold increase with LAB supplementation compared to control groups,[2],1.63 fold
same,efflux ratio at 50 µM,[3],2.7
same,Papp A→B at 20 μM,P-gp; LLC-PK1,3.73 ± 0.56 ×10⁻⁶ cm/s
same,Papp B→A at 20 μM,P-gp; LLC-PK1,10 ± 1.1 ×10⁻⁶ cm/s
same,efflux ratio at 20 μM,"P-gp; LLC-PK1, ER",2.7
same,CLint (intrinsic clearance),P-gp; llc-pk1,231 µL/min
same,Relative abundance / metabolic activity following fermentation of RGE with LAB,LAB,significantly increased
same,Oral BA,[4],3.7%
